Test system: keratinocyte cells
Test: Proliferation of keratinocyte (cell count)
Assay type: cell-based
Settings: for effect on proliferation of keratinocyte: cell count after 2-12 days of cultivation, FIG. 1
Experimental: The keratinocyte cells were respectively cultivated with the following groups of agents: (a) 0.7 μg/1 ml, 7 μg/ml, 70 μg/ml and 700 μg/ml of bismuth subgallate; (b) 0.1 μg/ml, 1 μg/ml, 10 μg/ml and […]; and (c) 0.7 μg/ml bismuth subgallate in combination with 0.1 μg/ml borneol, 7 μg/ml bismuth subgallate in combination with 1 μg/ml borneol, 70 μg/ml bismuth subgallate in combination with 10 μg/ml borneol and 700 μg/ml bismuth subgallate in combination with 100 μg/ml borneol. After the cells were cultivated after 2, 4, 6, 8, 10 and 12 days respectively, their count was noted to evaluate the proliferation of them.

| Compound | effect on proliferation of keratinocyte | keratinocyte cell number relative to control (70 μg/ml bismuth subgallate, twelfth day) |
| --- | --- | --- |
| CC1(C)C2CCC1(C)C(O)C2 (stereo not drawn) [borneol] | no significant effect | – |
| bismuth subgallate | significant increase in the proliferation of keratinocyte | up to two times of that of control |
